This note sets out measurements from publication PMC7217877, “N-AS-triggered SPMs are direct regulators of microglia in a model of Alzheimer’s disease” (Nature Communications, 2020).

The subject of experiment [1] is APP/PS1 mice. Description: COX2 mRNA and protein in microglia of mice treated with N-AS or aspirin (Supplementary Fig 7p,q). It is filed as in vivo, mouse. The following applies: for COX2 mRNA in microglia: APP/PS1 mice treated, sFig 7p. From the text:
Adult neurons and microglia were isolated from the mice brain as previously described. In brief, the cortex of WT (1, 3, 5, or 9-months-old), APP/PS1 (1, 3, 5, or 9-months-old), APP/PS1 treated with N-AS (9-months-old) or APP/PS1 treated with aspirin (9-months-old) mice were minced in Hibernate A (Gibco)/B27 (Invitrogen) medium and dissociated using papain (Worthington) solution. After tissue trituration, cells were separated by Optiprep (Sigma-Aldrich) density gradient centrifugation.
Samples were lysed in RIPA buffer (Cell signaling Technologies), then subjected to SDS-PAGE and transferred to a nitrocellulose membrane. Membranes were blocked with 5% milk, incubated with primary antibody and then incubated with the appropriate horseradish peroxidase-conjugated secondary antibody. […] We performed densitometric quantification using the ImageJ software (National Institutes of Health). Images have been cropped for presentation.
Transgenic mouse lines over-expressing the hAPP695swe (APP) and presenilin-1M146V (PS1) mutations were originated from GlaxoSmithKline (Harlow, UK)[32] and maintained as described previously. […] Because APP/PS1 and 5xFAD mice show sex differences in disease progression, we used only male mice. […] Block randomization method was used to allocate the animals to experimental groups. To eliminate the bias, we were blinded in experimental progress such as data collection and data analysis. […] All protocols were approved by the Kyungpook National University Institutional Animal Care and Use Committee.
For total RNA extraction from the microglia derived from WT, APP/PS1, APP/PS1 mice treated with N-AS, and APP/PS1 mice treated with aspirin, the cells were isolated from the cortex of WT, APP/PS1, APP/PS1 mice treated with N-AS, or aspirin using the methods described above. […] Quantitative real-time PCR was performed using a Corbett research RG-6000 real-time PCR instrument. Primers are described in Supplementary Table 5.

Experiment [2] addresses T1, COX2 (Homo sapiens, UniProt P35354).
T1 sequence (P35354 18-604): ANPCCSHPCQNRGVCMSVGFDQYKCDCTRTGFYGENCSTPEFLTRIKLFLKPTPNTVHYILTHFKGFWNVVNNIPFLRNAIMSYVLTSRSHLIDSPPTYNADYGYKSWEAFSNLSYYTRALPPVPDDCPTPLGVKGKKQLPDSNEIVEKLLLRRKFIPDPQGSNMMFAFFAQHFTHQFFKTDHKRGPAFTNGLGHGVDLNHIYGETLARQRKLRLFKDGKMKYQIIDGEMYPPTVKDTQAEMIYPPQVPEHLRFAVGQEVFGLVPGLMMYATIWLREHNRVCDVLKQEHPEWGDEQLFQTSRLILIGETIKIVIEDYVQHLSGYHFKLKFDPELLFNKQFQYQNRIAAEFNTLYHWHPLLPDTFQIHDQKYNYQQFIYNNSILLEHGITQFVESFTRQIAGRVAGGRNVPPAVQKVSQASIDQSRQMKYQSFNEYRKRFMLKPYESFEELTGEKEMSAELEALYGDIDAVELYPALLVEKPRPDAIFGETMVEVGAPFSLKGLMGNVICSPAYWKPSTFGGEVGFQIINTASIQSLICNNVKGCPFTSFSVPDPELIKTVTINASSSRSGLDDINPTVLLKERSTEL
Description: lipid mediator and SPM biosynthesis by recombinant COX2 with 5-LOX (LC-MS/MS). Particulars: for 11-HETE, Product (%) / 15-HETE, Product (%) / 15R-LXA4, Product (%) / PGH2, Product (%): AA; for 11-HETE, Product (%) / 15-HETE, Product (%) / 15R-LXA4, Product (%) / PGH2, Product (%) / 13-HDHA, Product (%) / 17-HDHA, Product (%) / RvD1, Product (%) / 11-HEPE, Product (%) / 15-HEPE, Product (%) / 18-HEPE, Product (%) / RvE1, Product (%): acetylated huCOX2, mean±s.e.m., n=6; for 15R-LxA4 quantification (Fig 2c) / RvD1 quantification (Fig 2c) / RvE1 quantification (Fig 2c): Control COX2 + 5-LOX, replicates; for 13-HDHA, Product (%) / 17-HDHA, Product (%) / RvD1, Product (%): DHA; for 11-HEPE, Product (%) / 15-HEPE, Product (%) / 18-HEPE, Product (%) / RvE1, Product (%): EPA. On the set-up: purchased Cayman 60122. It is filed as biochemical. The procedure: Lipid mediators metabololipidomics were performed according to previously described procedures with minor modifications[4],[30]. To confirm the biosynthesis of lipid mediators by recombinant COX2 treated with N-AS or aspirin, 10 U of human recombinant COX2 (Cayman, 60122) was incubated in the presence of 500 μM aspirin (Sigma-Aldrich, A5376) or N-AS (Sigma-Aldrich, 01912) at 37 °C for 30 min. The enzyme was filtered with a Microcon column (Millipore) to remove unreacted aspirin or N-AS and was then resuspended in 0.1 M Tris-HCl (pH 8.0). Next, 500 μM phenol (Sigma-Aldrich) and 1 μM hematin-porcine (Sigma-Aldrich) were added immediately before incubation with 100 μM AA, EPA or DHA (Cayman) at 37 °C for 2 h, respectively. The mixtures were incubated with 30 U of human 5-LOX (Cayman, 60402) containing 2 mM CaCl2 (Sigma-Aldrich), 1 mM ATP (Amresco) and 5 μM 13-HpODE (Cayman) as activators. Also, to validate the importance of residue S565 for N-AS-acetylation of COX2 and production of SPMs, 10 U of the COX2 S565A mutant was used in the above-described method. In addition, to confirm SPM generation in neurons and microglia, these cells were treated with Aβ and sonicated in neuronal and glial culture medium. […] To evaluate the relationship of N-AS and SPM production in microglia, microglia were isolated from WT, APP/PS1, and APP/PS1 treated with N-AS mice at 9 months of age. The microglia were sonicated and resuspended in microglial culture medium. The supernatants were incubated with 100 μM AA, EPA, and DHA (Cayman) at 37 °C for 2 h. A 50 μl aliquot of the mixture from each cell lysate was added to a 250 μl aliquot of 1 ng ml^−1 of 15S-LXA4-d5 (internal standard, Cayman) methanol solution. After vortexing for 10 min and centrifuging at 15,974×g for 5 min, the supernatant was subjected to the analysis of the lipid mediators using an Agilent 6470 Triple Quad LC-MS/MS system (Agilent) coupled to an Agilent 1290 HPLC system. Chromatographic separation was achieved using a Synergi Polar RP (4 μm, 2.0 mm i.d. × 150 mm, Phenomenex). Analytes were eluted with a mobile phase consisting of water: formic acid (100:0.1 v/v) (phase A) and methanol: formic acid (100:0.1 v/v) (phase B) in gradient elution mode for 23 min a flow rate of 0.2 ml min^−1. The elution gradient was as follows: from 0 to 0.1 min the content of phase A was 37% and the content of phase A was decreased to 10% and maintained for 5.5 min. The content of phase A was increased back to 37% at 6.0 min and maintained for 23 min. Quantification was carried out using MRM in negative ionization mode and collision energy of 10–15 eV. The mass transition from Q1 to Q3 is shown in Supplementary Table 2. In this study, the peak areas for all components were automatically integrated using MassHunter B 06.00.

Values joined by “and” are separate entries in the source; they are usually repeats but may differ in a detail not shown here. Equal entries are not always repeated.

For `CC(=O)Oc1ccccc1C(=O)O` [Aspirin, acetylsalicylic acid, reference compound], in experiment [1], the “COX2 mRNA in microglia” value was 0.57 and 0.65 and 0.68 and 0.49 and 0.61. In experiment [2], the “11-HETE, Product (%)” value was determined as 13.8±0.41%; the “15-HETE, Product (%)” value is given as 9.5±0.22%; the “15R-LXA4, Product (%)” value is on record as 4.2±0.18%; the “PGH2, Product (%)” value amounted to 72.3±0.68%. In addition, in experiment [2], the “15R-LxA4 quantification (Fig 2c)” value was 8734.32 and 9047.96 and 8672.38 and 8679.89 and 12017 and 8786.05 and 9112.59; the “RvD1 quantification (Fig 2c)” value is 529.99 and 519.44 and 632.8 and 532.11 and 521.52; the “RvE1 quantification (Fig 2c)” value was 3237.03 and 3196.43 and 4589.07 and 4937.89 and 3246.64 and 3210.17; the “13-HDHA, Product (%)” value was 5.0±0.15%. In experiment [2], the “17-HDHA, Product (%)” value is recorded as 94.6±0.22%; the “RvD1, Product (%)” value was found to be 0.4±0.01%; the “11-HEPE, Product (%)” value is recorded as 27.3±1.40%; the “15-HEPE, Product (%)” value turned out to be 5.8±0.06%. Moreover, in experiment [2], the “18-HEPE, Product (%)” value is listed as 61.3±0.32% and the “RvE1, Product (%)” value came out at 3.1±0.25%.

In the case of `CCCCCCCCCCCCC/C=C/[C@@H](O)[C@H](CO)NC(C)=O` [N-AS, N-((2S,3R,E)-1,3-Dihydroxyoctadec-4-en-2-yl)acetamide], in experiment [1], the “COX2 mRNA in microglia” value was 0.91 and 0.92 and 1.07 and 1.22 and 1. For the same molecule, the “mRNA and protein levels of COX2” value in experiment [1] (N-AS-treated vs APP/PS1) is recorded as “did not vary”. In addition, in experiment [2], the “11-HETE, Product (%)” value is listed as 13.1±0.55%; the “15-HETE, Product (%)” value is given as 13.3±0.59%; the “15R-LXA4, Product (%)” value came out at 4.8±0.23%; the “PGH2, Product (%)” value is reported as 69.7±1.08%. Besides, in experiment [2], the “15R-LxA4 quantification (Fig 2c)” value is 10460.6 and 9709.13 and 8768.93 and 9235.99 and 8577.96 and 10535.3; the “RvD1 quantification (Fig 2c)” value was 670.43 and 829.94 and 668.56 and 744.28 and 781.34 and 739.49 and 733.66; the “RvE1 quantification (Fig 2c)” value is 4023.99 and 3322.2 and 4006.77 and 4517.41 and 3768.91 and 4998.35 and 3336.48; the “13-HDHA, Product (%)” value worked out at 3.6±0.09%. In experiment [2], the “17-HDHA, Product (%)” value was 95.8±0.19%; the “RvD1, Product (%)” value was 0.53±0.09%; the “11-HEPE, Product (%)” value came out at 26.8±0.41%; the “15-HEPE, Product (%)” value worked out at 5.8±0.09%. In experiment [2], the “18-HEPE, Product (%)” value is listed as 64.0±0.25% and the “RvE1, Product (%)” value is recorded as 3.3±0.09%.
